In patent US8791132B2, “Compounds and methods for treatment of hypertension” (Medivation Technologies, Inc., priority 2011, dated 2014):

Tests used:
[1] = biological target: T1, human recombinant adrenergic α2B receptor (Homo sapiens, UniProt P18089); assay: Radioligand binding, adrenergic α2B ([3H]Rauwolscine); conditions: 0.1 μM compound; read-out: Percentage inhibition of ligand binding, Adrenergic α2B
T1 construct: expressed in transfected cells; host or cells: CHO-K1
T1 sequence (P18089 1-450): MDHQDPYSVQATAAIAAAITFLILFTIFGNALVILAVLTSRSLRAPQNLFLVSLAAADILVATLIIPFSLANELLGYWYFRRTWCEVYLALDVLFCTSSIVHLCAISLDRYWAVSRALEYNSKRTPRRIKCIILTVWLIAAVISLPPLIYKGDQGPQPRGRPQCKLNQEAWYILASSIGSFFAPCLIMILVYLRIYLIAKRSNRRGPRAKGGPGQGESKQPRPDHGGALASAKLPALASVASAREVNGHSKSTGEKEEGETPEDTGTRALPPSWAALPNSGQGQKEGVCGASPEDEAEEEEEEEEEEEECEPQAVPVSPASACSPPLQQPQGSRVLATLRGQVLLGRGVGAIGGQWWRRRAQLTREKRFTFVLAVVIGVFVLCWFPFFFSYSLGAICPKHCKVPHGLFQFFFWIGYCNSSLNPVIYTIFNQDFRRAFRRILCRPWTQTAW
Procedure, shortened: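 Readout: percent inhibition of specific [3H]Rauwolscine binding, measured by filtration and counting. Conditions: CHO-K1 cell-expressed receptor, 2.5 nM radioligand, 60 min, 25° C, Tris-HCl pH 7.4 buffer with MgCl2, EDTA, BSA. Non-specific binding: 10 μM Prazosin.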

[2] = biological target: T2, rat adrenergic α1B receptor (Rattus norvegicus, UniProt P15823); assay: Radioligand binding, adrenergic α1B ([3H]Prazosin); conditions: 0.1 μM compound; read-out: Percentage inhibition of ligand binding, Adrenergic α1B
T2 construct: rat adrenergic α1B receptor obtained from Wistar Rat liver; from tissue; host or cells: Wistar rat liver
T2 sequence (P15823 1-515): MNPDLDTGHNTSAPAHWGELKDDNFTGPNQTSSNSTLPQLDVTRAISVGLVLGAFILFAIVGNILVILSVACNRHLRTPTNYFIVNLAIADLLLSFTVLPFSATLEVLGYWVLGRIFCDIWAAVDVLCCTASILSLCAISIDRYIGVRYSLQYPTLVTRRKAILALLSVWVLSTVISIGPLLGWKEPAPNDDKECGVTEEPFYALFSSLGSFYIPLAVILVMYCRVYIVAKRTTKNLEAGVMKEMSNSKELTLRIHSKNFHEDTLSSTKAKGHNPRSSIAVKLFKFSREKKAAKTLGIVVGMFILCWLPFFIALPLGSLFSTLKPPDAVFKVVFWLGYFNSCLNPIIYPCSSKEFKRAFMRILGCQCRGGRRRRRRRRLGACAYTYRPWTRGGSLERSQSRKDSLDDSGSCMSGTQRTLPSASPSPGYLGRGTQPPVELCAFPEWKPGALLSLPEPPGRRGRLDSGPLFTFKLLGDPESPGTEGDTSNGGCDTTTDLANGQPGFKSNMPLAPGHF
Procedure, shortened: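 Filter binding with Wistar rat liver α1B preparation: test compound plus 0.25 nM [3H]prazosin, 1 h at 25° C in modified Tris-HCl buffer pH 7.4.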

[3] = biological target: T3, human recombinant adrenergic α1D receptor (Homo sapiens, UniProt P25100); assay: Radioligand binding, adrenergic α1D ([3H]Prazosin); conditions: 0.1 μM compound; read-out: Percentage inhibition of ligand binding, Adrenergic α1D
T3 construct: expressed in transfected cells; host or cells: HEK-293
T3 sequence (P25100 1-572): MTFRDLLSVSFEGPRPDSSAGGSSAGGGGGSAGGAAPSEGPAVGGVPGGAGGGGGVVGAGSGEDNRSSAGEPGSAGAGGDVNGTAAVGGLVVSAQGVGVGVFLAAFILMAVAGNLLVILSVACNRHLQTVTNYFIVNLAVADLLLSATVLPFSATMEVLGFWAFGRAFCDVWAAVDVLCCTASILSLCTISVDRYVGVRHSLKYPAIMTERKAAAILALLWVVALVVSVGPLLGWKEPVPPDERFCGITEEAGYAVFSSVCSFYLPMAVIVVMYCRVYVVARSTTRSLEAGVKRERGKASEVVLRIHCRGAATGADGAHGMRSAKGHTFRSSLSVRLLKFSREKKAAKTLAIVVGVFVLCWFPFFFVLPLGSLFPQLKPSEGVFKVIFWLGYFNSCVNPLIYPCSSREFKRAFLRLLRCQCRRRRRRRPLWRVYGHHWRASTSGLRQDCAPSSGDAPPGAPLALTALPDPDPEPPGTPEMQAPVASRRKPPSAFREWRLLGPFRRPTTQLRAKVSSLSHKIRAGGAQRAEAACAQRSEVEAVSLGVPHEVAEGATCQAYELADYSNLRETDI
Experimental: Compounds were incubated with 0.6 nM [3H]Prazosin for 60 min at 25° C. Non-specific binding was estimated in the presence of 10 μM phentolamine. Receptor proteins were filtered and washed, the filters were then counted to determine [3H]Prazosin specifically bound. […] Biochemical assay results are presented as the percent inhibition of specific binding in Table B1.

[4] = biological target: T4, human recombinant adrenergic α2A receptor (Homo sapiens, UniProt P08913); assay: Radioligand binding, adrenergic α2A ([3H]MK-912); conditions: 0.1 μM compound; read-out: Percentage inhibition of ligand binding, Adrenergic α2A
T4 construct: expressed in transfected cells; host or cells: insect Sf9 cells
T4 sequence (P08913 1-465): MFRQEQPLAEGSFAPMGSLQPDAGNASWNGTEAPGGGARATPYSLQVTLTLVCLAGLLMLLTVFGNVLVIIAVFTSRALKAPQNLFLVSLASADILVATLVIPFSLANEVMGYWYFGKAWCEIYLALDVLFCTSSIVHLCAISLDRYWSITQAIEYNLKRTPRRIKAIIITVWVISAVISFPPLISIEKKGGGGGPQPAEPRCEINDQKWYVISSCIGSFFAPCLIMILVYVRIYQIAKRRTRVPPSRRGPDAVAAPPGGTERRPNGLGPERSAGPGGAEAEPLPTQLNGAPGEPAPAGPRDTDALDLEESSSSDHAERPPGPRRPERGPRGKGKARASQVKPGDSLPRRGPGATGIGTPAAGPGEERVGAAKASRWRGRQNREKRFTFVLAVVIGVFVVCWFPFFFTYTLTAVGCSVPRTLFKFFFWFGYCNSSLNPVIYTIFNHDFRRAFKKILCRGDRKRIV
Procedure, shortened: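 Receptor expressed in insect Sf9 cells, assayed in 50 mM Tris-HCl pH 7.4 with 12.5 mM MgCl2 and 2 mM EDTA. Compounds incubated with 1 nM [3H]MK-912 for 60 min at 25 °C; nonspecific binding defined with 10 μM WB-4101. Filter-bound radioactivity counted; values are percent inhibition of specific binding.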

Row | Compound | inhibition at 0.1 µM [1] [%] | inhibition at 0.1 µM [2] [%] | inhibition at 0.1 µM [3] [%] | inhibition at 0.1 µM [4] [%]
1 | Cc1ccc2c(c1)c1c(n2CCc2cccc(C)n2)CCN(C)C1 [compound 297, 2,8-dimethyl-5-[2-(6-methyl-pyridin-2-yl)-ethyl]-2,3,4,5-tetrahydro-1H-pyrido[4,3-b]indole] | 46 | 69 | 36 | 50
2 | Cc1ccc2c(c1)c1c(n2CCc2cccc(N(C)C)c2)CCN(C)C1 [compound 298, {3-[2-(2,8-dimethyl-1,2,3,4-tetrahydro-pyrido[4,3-b]indol-5-yl)-ethyl]-phenyl}-dimethyl-amine] | 51 | 60 | 17 | 54
3 | Cc1ccc(CCn2c3c(c4cc(C)ccc42)CN(C)CC3)nc1 [compound 299, 2,8-dimethyl-5-[2-(5-methyl-pyridin-2-yl)-ethyl]-2,3,4,5-tetrahydro-1H-pyrido[4,3-b]indole] | 54 | 78 | 47 | 52
4 | Cc1ccc2c(c1)c1c(n2C2=C(c3cccnc3)CCC2)CCN(C)C1 [compound 300, 2,8-dimethyl-5-(2-(pyridin-3-yl)cyclopent-1-enyl)-2,3,4,5-tetrahydro-1H-pyrido[4,3-b]indole] | 86 | 14 | 29 | 67
5 | Cc1ccc2c(c1)c1c(n2C2=C(c3ccc(F)cc3)CCC2)CCN(C)C1 [compound 301, 5-(2-(4-fluorophenyl)cyclopent-1-enyl)-2,8-dimethyl-2,3,4,5-tetrahydro-1H-pyrido[4,3-b]indole] | 84 | 29 | 36 | 87
6 | Cc1ccc2c(c1)c1c(n2C2=C(c3sccc3C)CCC2)CCN(C)C1 [compound 302, 2,8-dimethyl-5-(2-(3-methylthiophen-2-yl)cyclopent-1-enyl)-2,3,4,5-tetrahydro-1H-pyrido[4,3-b]indole] | 35 | 23 | 17 | 81
7 | Cc1ccc2c(c1)c1c(n2C2=C(c3cnc(N(C)C)nc3)CCC2)CCN(C)C1 [compound 303, 5-(2-(2,8-dimethyl-3,4-dihydro-1H-pyrido[4,3-b]indol-5(2H)-yl)cyclopent-1-enyl)-N,N-dimethylpyrimidin-2-amine] | 71 | 16 | 51 | 62
8 | Cc1csc(C2=C(n3c4c(c5cc(C)ccc53)CN(C)CC4)CCC2)c1 [compound 304, 2,8-dimethyl-5-(2-(4-methylthiophen-2-yl)cyclopent-1-enyl)-2,3,4,5-tetrahydro-1H-pyrido[4,3-b]indole] | 81 | 15 | 27 | 79
9 | Cc1ccc2c(c1)c1c(n2C2=C(c3cc4ccccc4s3)CCC2)CCN(C)C1 [compound 305, 5-(2-(benzo[b]thiophen-2-yl)cyclopent-1-enyl)-2,8-dimethyl-2,3,4,5-tetrahydro-1H-pyrido[4,3-b]indole] | 79 | 20 | 41 | 93
10 | Cc1ccc2c(c1)c1c(n2C2=C(c3cccc4ccccc34)CCC2)CCN(C)C1 [compound 306, 2,8-dimethyl-5-(2-(naphthalen-1-yl)cyclopent-1-enyl)-2,3,4,5-tetrahydro-1H-pyrido[4,3-b]indole] | 14 | 18 | 12 | 78
11 | Cc1ccc2c(c1)c1c(n2C2=C(c3ccnn3C)CCC2)CCN(C)C1 [compound 309, 2,8-dimethyl-5-(2-(1-methyl-1H-pyrazol-5-yl)cyclopent-1-enyl)-2,3,4,5-tetrahydro-1H-pyrido[4,3-b]indole] | 37 | 23 | 40 | 57
12 | C/C(=C\n1c2c(c3cc(C)cc(C)c31)CN(C)CC2)c1cccc(S(C)(=O)=O)c1 [compound 310] | 87 | 63 | 47 | 69
13 | C/C(=C\n1c2c(c3cc(C)ccc31)CN(C)CC2)c1ccc2cnccc2c1 [compound 311] | 97 | 87 | 79 | 91
14 | C/C(=C\n1c2c(c3cc(C)cc(C)c31)CN(C)CC2)c1ccncc1 [compound 312] | 93 | 71 | 50 | 56
15 | Cc1ccc2c(c1)c1c(n2C#Cc2cccc3cnccc23)CCN(C)C1 [compound 313, 5-isoquinolin-5-ylethynyl-2,8-dimethyl-2,3,4,5-tetrahydro-1H-pyrido[4,3-b]indole] | 73 | 92 | 53 | 73
16 | Cc1ccc2c(c1)c1c(n2CCc2ccc(C)nc2)C(c2ccccc2)N(C)CC1 (stereo not drawn) [compound 314] | 50 | 92 | 71 | 91
17 | Cc1ccc(CCn2c3c(c4ccc(Cl)cc42)CN(C)CC3)cn1 [compound 315] | 48 | 4 | 3 | 59
18 | Cc1ccc2c(c1)c1c(n2/C=C/c2cccc3cnccc23)CCN(C)C1 [compound 316, 5-(2-isoquinolin-5-yl-vinyl)-2,8-dimethyl-2,3,4,5-tetrahydro-1H-pyrido[4,3-b]indole] | 45 | 93 | 81 | 90
